This assay in a line: Case report: menstrual cramps. The format is in vivo, human. The following applies: person, single dose. Here is the method: The anti-inflammatory effect of the 1117 fraction is evidenced by the following: • 1. A person experienced moderate to severe muscle pain after exercising. The person was in otherwise good health, but would consume four Advil after playing tennis. […] A person in good health and with regular menstruation typically experienced a day during menstruation with moderate to severe menstrual cramps. On one occasion, the painful cramps were so severe that they were not relieved by 1 hour heat or 1000 mg Tylenol. […] The relief happened within 5-10 minutes after consumption, and lasted 8 hours. • 3. A person in good health experienced severe, throbbing muscle pain after a 1-hour session of deep tissue massage. The pain was relieved within 30 minutes after consuming a single dose of 500 mg the 1117 fraction.

As to `CC(=O)Nc1ccc(O)cc1` [Tylenol], the “effect on severe menstrual cramps and pain” value is listed as “not relieved”.

The record behind these values is patent US9370537B2, “Compositions and methods for reducing inflammation” (Cerule, LLC, priority 2009, dated 2016).
